# Experiments:
# human M4 (hM4) receptor = target: T1, human M4 (hM4) receptor (Homo sapiens, UniProt P08173); type: cell-based; conditions: for hM4 EC50: hM4/Gqi5-CHO cells, EC20 acetylcholine, n=1 experiment in triplicate; for fold increase in functional M4 potency versus 24e: compared with 24e
# T1 sequence (P08173 1-479): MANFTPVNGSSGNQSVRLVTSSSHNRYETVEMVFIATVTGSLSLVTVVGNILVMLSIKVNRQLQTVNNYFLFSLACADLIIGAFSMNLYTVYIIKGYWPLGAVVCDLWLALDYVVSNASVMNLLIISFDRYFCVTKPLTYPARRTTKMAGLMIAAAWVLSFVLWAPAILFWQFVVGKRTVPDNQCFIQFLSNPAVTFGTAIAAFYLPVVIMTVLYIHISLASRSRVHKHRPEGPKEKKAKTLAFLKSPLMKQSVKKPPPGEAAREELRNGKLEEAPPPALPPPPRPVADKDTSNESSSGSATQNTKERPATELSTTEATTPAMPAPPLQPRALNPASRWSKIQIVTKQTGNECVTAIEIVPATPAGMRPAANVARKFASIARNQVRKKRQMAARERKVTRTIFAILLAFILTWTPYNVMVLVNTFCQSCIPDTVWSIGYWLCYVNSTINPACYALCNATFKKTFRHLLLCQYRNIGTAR
# [1] = Rat microsomal intrinsic clearance and predicted hepatic clearance; type: in vitro ADME; conditions: microsomes
# [2] = Human microsomal intrinsic clearance and predicted hepatic clearance; type: in vitro ADME; conditions: microsomes
# Rat plasma:brain level = type: in vivo; conditions: SD, brain and plasma, iv, 0.2 mg/kg; for Kp at […]: Kpuu, brain:plasma, SD Rat, 0.2 mg/kg IV
smiles,measurement,setting,value
Cc1cc(C)c2c(n1)sc1c(OCc3ccc(C(C)(C)O)cc3)ncnc12 [compound 19],fold decrease (loss) in hM4 potency versus 16m,human M4 (hM4) receptor; compared with 16m,9.6 fold
COc1ccc(CNc2ncnc3c2oc2nc(C)cc(C)c23)cc1F [17d],hM4 EC50,human M4 (hM4) receptor,complete loss of activity
Cc1cc(C)c2c(n1)oc1c(NC3CCC3)ncnc12 [17c],fold potency decrease versus 16v,human M4 (hM4) receptor; compared with 16v,4.4 fold
Cc1cc(C)c2c(n1)sc1c(N3CCC3)ncnc12 [16x],CLint scaled,[1],741 mL/min/kg
same,EC50,human M4 (hM4) receptor,< 350 nM
same,CLint scaled,[2],296 mL/min/kg
same,Kp uu at […],Rat plasma:brain level,0.27
Cc1cc(C)c2c(n1)oc1c(NCc3ccc(C(C)(C)O)cc3)ncnc12 [17e],hM4 EC50,human M4 (hM4) receptor,complete loss of activity
Cc1cc(C)c2c(n1)oc1c(NC3CN(c4ncc(C(F)(F)F)cn4)C3)ncnc12 [17f],hM4 EC50,human M4 (hM4) receptor,complete loss of activity
Cc1cc(C)c2c(n1)sc1c(C3CCNCC3)ncnc12 [24e],fold loss of hM4 functional potency versus 24d,human M4 (hM4) receptor; compared with 24d,~ 40 fold
Cc1cc(C)c2c(n1)sc1c(NC3CCC3)nccc12 [18g],CLint scaled,[1],3860 mL/min/kg
same,EC50,human M4 (hM4) receptor,< 350 nM
same,fold increase in functional hM4 potency versus 16v,human M4 (hM4) receptor; compared with 16v,~ 4 fold
same,fold increase in human M4 activity versus parent compound VU0152100,human M4 (hM4) receptor; compared with VU0152100,6 fold
same,CLint scaled,[2],345 mL/min/kg
same,Kp uu at […],Rat plasma:brain level,4.18
Cc1cc(C)c2c(n1)oc1c(N3CCCC3)ncnc12 [17a],hM4 EC50,human M4 (hM4) receptor,complete loss of activity
Cc1cc(C)c2c(n1)sc1c(NCc3ccc(S(C)(=O)=O)cc3)ncnc12 [16o],CLint scaled,[1],176 mL/min/kg
same,EC50,human M4 (hM4) receptor,< 350 nM
same,CLint scaled,[2],28 mL/min/kg
same,Kp uu at […],Rat plasma:brain level,0.21
Cc1cc(C)c2c(n1)sc1c(NC3CN(c4ncc(C(F)(F)F)cn4)C3)nccc12 [18c],fold increase in hM4 potency versus 16p,human M4 (hM4) receptor; compared with 16p,~ 44 fold
Cc1cc(C)c2c(n1)sc1c(C3CCN(CC4CC4)CC3)ncnc12 [compound 30],hM4 EC50,human M4 (hM4) receptor,complete loss of M4 potency
Cc1cc(C)c2c(n1)sc1c(NCc3ccc(C(C)(C)O)cc3)nccc12 [18b],CLint scaled,[1],334 mL/min/kg
same,EC50,human M4 (hM4) receptor,< 350 nM
same,fold increase in hM4 potency versus 16m,human M4 (hM4) receptor; compared with 16m,~ 2.8 fold
same,CLint scaled,[2],50 mL/min/kg
same,Kp uu at […],Rat plasma:brain level,1.16
Cc1cc(C)c2c(n1)sc1c(N3CCCC3)nccc12 [18d],CLint scaled,[1],2100 mL/min/kg
same,EC50,human M4 (hM4) receptor,< 350 nM
same,CLint scaled,[2],161 mL/min/kg
same,Kp uu at […],Rat plasma:brain level,4.87
Cc1cc(C)c2c(n1)sc1c(C3CCN(C(=O)C4(C)CC4)CC3)ncnc12 [28b],CLint scaled,[1],367 mL/min/kg
same,fold increase in functional M4 potency versus 24e,human M4 (hM4) receptor,26 fold
same,CLint scaled,[2],25 mL/min/kg
same,Kp uu at […],Rat plasma:brain level,0.35
same,Kp at […],Rat plasma:brain level,0.35 to 0.65
Cc1cc(C)c2c(n1)sc1c(N3CC4(COC4)C3)ncnc12 [16y],CLint scaled,[1],594 mL/min/kg
same,CLint scaled,[2],129 mL/min/kg
same,Kp uu at […],Rat plasma:brain level,0.4
same,Kp at […],Rat plasma:brain level,0.35 to 0.65
Cc1cc(C)c2c(n1)sc1c(NCc3ccc(C(C)(C)O)cc3F)ncnc12 [16n],fold decrease (loss) in hM4 potency versus 16m,human M4 (hM4) receptor; compared with 16m,~ 2.5 fold
Cc1cc(C)c2c(n1)sc1c(C3CCN(C(=O)C4CC4)CC3)ncnc12 [28a],fold increase in functional M4 potency versus 24e,human M4 (hM4) receptor,~ 10 fold
Cc1cc(C)c2c(n1)sc1c(C3CCOCC3)ncnc12 [24d],fold increase in hM4 functional potency versus 24a,human M4 (hM4) receptor; compared with 24a,~45 fold
Cc1cc(C)c2c(n1)sc1c(N3CCCC3)ncnc12 [16w],CLint scaled,[1],1900 mL/min/kg
same,EC50,human M4 (hM4) receptor,< 350 nM
same,CLint scaled,[2],134 mL/min/kg
same,Kp uu at […],Rat plasma:brain level,0.65
same,Kp at […],Rat plasma:brain level,0.35 to 0.65
Cc1cc(C)c2c(n1)sc1c(C3CCN(c4cncc(F)c4)CC3)ncnc12 [compound 26],hM4 EC50,human M4 (hM4) receptor,complete loss of activity

# From PMC8648000 (Bioorganic & medicinal chemistry letters, 2021)
